1 molecule from PMC9866905, “Dehydroeburicoic Acid, a Dual Inhibitor against Oxidative Stress in Alcoholic Liver Disease” (Pharmaceuticals, 2022) can be followed below.

One assay has as its target Keap1 (Homo sapiens, UniProt Q14145). The experiment in a line: fluorescence polarization competition with labeled Nrf2 (ETGE) peptide, dose-response; supported by CETSA in LO2 lysate (ΔTm ca. […] °C). It counts as binding. The note with it: read-out: EC50 (the source's name).
In another assay the target is T1, GSK3β (Homo sapiens, UniProt P49841).
T1 construct: gene GSK3B
T1 sequence (P49841 whole entry): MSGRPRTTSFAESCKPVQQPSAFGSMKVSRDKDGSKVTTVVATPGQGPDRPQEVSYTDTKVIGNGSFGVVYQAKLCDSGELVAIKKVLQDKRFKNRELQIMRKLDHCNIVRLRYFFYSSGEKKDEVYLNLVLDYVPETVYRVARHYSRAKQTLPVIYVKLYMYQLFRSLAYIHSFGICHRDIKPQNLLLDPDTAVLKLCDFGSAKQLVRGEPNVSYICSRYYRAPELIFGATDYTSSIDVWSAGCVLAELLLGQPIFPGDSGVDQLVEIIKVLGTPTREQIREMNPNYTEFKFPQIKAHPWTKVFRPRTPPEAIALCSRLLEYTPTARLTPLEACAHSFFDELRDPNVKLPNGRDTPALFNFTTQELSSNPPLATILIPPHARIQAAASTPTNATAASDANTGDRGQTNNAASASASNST
The experiment in a line: ADP-Glo luminescent kinase assay, dose-response; supported by CETSA in LO2 lysate (ΔTm ca. […] °C). The assay is classed as biochemical. Background: ADP-Glo turns the ADP formed in a reaction into a luminescent signal.

Structures are written as SMILES.

Keap1, sequence (Q14145 whole entry): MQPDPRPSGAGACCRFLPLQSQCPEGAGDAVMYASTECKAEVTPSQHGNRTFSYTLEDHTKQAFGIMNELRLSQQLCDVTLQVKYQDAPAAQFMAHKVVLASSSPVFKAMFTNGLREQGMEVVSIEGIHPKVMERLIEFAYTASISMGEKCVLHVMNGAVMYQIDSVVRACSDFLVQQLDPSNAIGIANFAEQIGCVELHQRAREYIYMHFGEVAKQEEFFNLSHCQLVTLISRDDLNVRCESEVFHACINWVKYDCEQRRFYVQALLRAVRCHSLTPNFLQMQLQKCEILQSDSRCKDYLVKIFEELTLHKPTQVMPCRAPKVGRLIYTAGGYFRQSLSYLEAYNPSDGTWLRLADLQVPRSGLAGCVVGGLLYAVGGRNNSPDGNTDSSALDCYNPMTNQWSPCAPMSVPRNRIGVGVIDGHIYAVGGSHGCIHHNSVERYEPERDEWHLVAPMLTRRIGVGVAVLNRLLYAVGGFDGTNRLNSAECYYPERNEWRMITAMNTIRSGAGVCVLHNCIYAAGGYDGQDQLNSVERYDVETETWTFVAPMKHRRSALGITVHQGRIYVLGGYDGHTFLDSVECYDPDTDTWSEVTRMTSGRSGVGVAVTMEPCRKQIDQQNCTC

For `C=C(CC[C@@H](C(=O)O)[C@H]1CC[C@@]2(C)C3=CC[C@H]4C(C)(C)[C@@H](O)CC[C@]4(C)C3=CC[C@]12C)C(C)C` [compound 1, Dehydroeburicoic acid], on Keap1, the IC50 is 14.1 ± 0.1 µM. Moreover, a half-maximal response at GSK3β (EC50) required 8 ± 0.7 µM.
